The results in this text go back to patent US10821115B2, “Compounds that inhibit Mcl-1 protein” (priority 2017, dated 2020).

Each structure is given as a SMILES string. Where two headings read alike, the source gives them in different places.

In experiment [1] the test system is human multiple myeloma cell line, OPM-2. The experiment is described as follows: Cell viability assay (OPM-2 10 FBS), CellTiter-Glo. It is filed as cell-based. Put shortly: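 OPM-2 cells at 3000 cells/well in RPMI 1640 with 10% FBS were exposed to serially diluted compounds for 16 h at 37 °C, 5% CO2.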
Experiment [2] deals with recombinant human Mcl-1 (residues 171-327) / Bim interaction (Homo sapiens (Human), UniProt Q07820). The experiment is described as follows: biochemical. Format: binding. To be noted: read-out: Mcl-1 HTRF IC50.
recombinant human Mcl-1 (residues 171-327) / Bim interaction, sequence (Q07820 171-327): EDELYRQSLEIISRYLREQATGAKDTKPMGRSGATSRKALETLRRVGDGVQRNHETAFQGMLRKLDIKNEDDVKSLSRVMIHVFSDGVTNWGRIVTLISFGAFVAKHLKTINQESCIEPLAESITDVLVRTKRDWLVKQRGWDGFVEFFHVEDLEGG
[3] abbreviates: Homo sapiens, OPM-2, 16 h, read-out: OPM-2 10% FBS IC50 IP, OPM-2 cells, 10% FBS, 16 h incubation.
Where [4] appears, read: 0.1 nM Mcl-1(171-327), 0.05 nM biotin-Bim (51-76).
The mark [5] stands for this setting: Homo sapiens, OPM-2, 16 h, read-out: OPM-2 10% FBS IC50 IP, OPM-2 cells, 10% FBS, 16 h, CellTiter-Glo.
Setting [6] is: TR-FRET, Mcl-1(171-327) / biotin-Bim (51-76).
Setting [7] is: read-out: OPM-2 10% FBS IC50 IP, OPM-2 cells, 10% FBS, 16 h, CellTiter-Glo.

In the case of `CO[C@]1(CN2CCCCC2)/C=C/C[C@H](C)[C@@H](C)S(=O)(=O)NC(=O)c2ccc3c(c2)N(C[C@@H]2CC[C@H]21)C[C@@]1(CCCc2cc(Cl)ccc21)CO3` [Example 74, (1S,3′R,6′R,7′R,8′E,11′S,12′R)-6-chloro-7′-methoxy-11′,12′-dimethyl-7′-(1-piperidinylmethyl)-3,4-dihydro-2H,15′H-spiro[naphthalene-1,22′-[20]oxa[13]thia[1,14]diazatetracyclo [14.7.2.0~3,6~.0~19,24~]pentacosa[8,16,18,24]tetraen]-15′-one 13′,13′-dioxide], the IC50 (in general, the concentration needed to halve the response being measured) stood at 3360 nM in experiment [1] (setting [3]) and 2.29 nM in experiment [2] (setting [4]).
On to `C[C@@H]1[C@@H](C)CCC[C@@](O)(COCCN(C)C)[C@@H]2CC[C@H]2CN2C[C@@]3(CCCc4cc(Cl)ccc43)COc3ccc(cc32)C(=O)NS1(=O)=O` [Example 100194, (1S,3′R,6′R,7′S,11S,12R)-6-chloro-7′-((2-(dimethylamino)ethoxy)methyl)-7′-hydroxy-11′,12′-dimethyl-3,4-dihydro-2H,15′H-spiro[naphthalene-1,22′-[20]oxa[13]thia[1,14]diazatetracyclo [14.7.2.0~3,6~.0~19,24~]pentacosa[16,18,24]trien]-15′-one 13′,13′-dioxide], for which the IC50 came out at 619 nM in experiment [1] (setting [5]) and 0.613 nM in experiment [2] (setting [6]).
For the molecule `COC[C@]1(O)CCC[C@H](C)[C@@H](C)S(=O)(=O)NC(=O)c2ccc3c(c2)N(C[C@@H]2CC[C@H]21)C[C@@]1(CCCc2cc(Cl)ccc21)CO3` (stereo in doubt) [Example 100149, (1S,3′R,6′R,7′S,11′S,12′R)-6-chloro-7′-hydroxy-7′-(methoxymethyl)-11′,12′-dimethyl-3,4-dihydro-2H,15′H-spiro[naphthalene-1,22′-[20]oxa[13]thia[1,14]diazatetracyclo [14.7.2.0~3,6~.0~19,24~]pentacosa[16,18,24]rien]-15′-one 13′,13′-dioxide], the figures for the IC50 in experiment [1] (setting [5]) and in experiment [2] (setting [6]) were 186 nM and 0.214 nM, respectively.
On to `C[C@@H]1[C@@H](C)CCC[C@@](O)(Cc2nccs2)[C@@H]2CC[C@H]2CN2C[C@@]3(CCCc4cc(Cl)ccc43)COc3ccc(cc32)C(=O)NS1(=O)=O` (single isomer, unassigned) [Example 100251], for which the IC50 in experiment [1] (setting [7]) amounted to 3730 nM; in experiment [2] (setting [6]), 3.29 nM.
As for `C[C@@H]1[C@@H](C)C/C=C/[C@@](O)(COCCN2CCOCC2)[C@@H]2CC[C@H]2CN2C[C@@]3(CCCc4cc(Cl)ccc43)COc3ccc(cc32)C(=O)NS1(=O)=O` [Example 100355, (1S,3′R,6′R,7′S,8′E,11′S,12′R)-6-chloro-7′-hydroxy-11′,12′-dimethyl-7′-((2-(4-morpholinyl)ethoxy)methyl)-3,4-dihydro-2H,15′H-spiro[naphthalene-1,22′-[20]oxa[13]thia[1,14]diazatetracyclo [14.7.2.0~3,6~.0~19,24~]pentacosa[8,16,18,24]tetraen]-15′-one 13′,13′-dioxide], the IC50 in experiment [1] (setting [5]) is 776 nM; in experiment [2] (setting [6]) it was 0.535 nM.
In the same order, the values of `C[C@@H]1[C@@H](C)C/C=C/[C@@](O)(C#CCCO)[C@@H]2CC[C@H]2CN2C[C@@]3(CCCc4cc(Cl)ccc43)COc3ccc(cc32)C(=O)NS1(=O)=O` [Example 100422, (1S,3′R,6′R,7′S,8′E,11′S,12′R)-6-chloro-7′-hydroxy-7′-(4-hydroxy-1-butyn-1-yl)-11′,12′-dimethyl-3,4-dihydro-2H,15′H-spiro[naphthalene-1,22′-[20]oxa[13]thia[1,14]diazatetracyclo [14.7.2.0~3,6~.0~19,24~]pentacosa[8,16,18,24]tetraen]-15′-one 13′,13′-dioxide] are 182 nM and 0.174 nM.
With `COC[C@@H]1[C@@H](C)C/C=C/[C@](CN2CCN(C3COC3)CC2)(OC)[C@@H]2CC[C@H]2CN2C[C@@]3(CCCc4cc(Cl)ccc43)COc3ccc(cc32)C(=O)NS1(=O)=O` [Example 170, (1S,3′R,6′R,7′S,8′E,11′S,12′S)-6-chloro-7′-methoxy-12′-(methoxymethyl)-11′-methyl-7′-((4-(3-oxetanyl)-1-piperazinyl)methyl)-3,4-dihydro-2H,15′H-spiro[naphthalene-1,22′-[20]oxa[13]thia[1,14]diazatetracyclo [14.7.2.0~3,6~.0~19,24~]pentacosa[8,16,18,24]tetraen]-15′-one 13′,13′-dioxide], the IC50 in experiment [1] (setting [3]) was 75 nM; in experiment [2] (setting [4]) it was 0.131 nM.
In the case of `CO[C@@]1(CN2CCN3CCOC[C@@H]3C2)/C=C/C[C@H](C)[C@@H](C)S(=O)(=O)NC(=O)c2ccc3c(c2)N(C[C@@H]2CC[C@H]21)C[C@@]1(CCCc2cc(Cl)ccc21)CO3` [Example 56, (1S,3′R,6′R,7′S,8′E,11′S,12′R)-6-chloro-7′-((9aS)-hexahydropyrazino[2,1-c][1,4]oxazin-8(1H)-ylmethyl)-7′-methoxy-11′,12′-dimethyl-3,4-dihydro-2H,15′H-spiro[naphthalene-1,22′-[20]oxa[13]thia[1,14]diazatetracyclo [14.7.2.0~3,6~.0~19,24~]pentacosa[8,16,18,24]tetraen]-15′-one 13′,13′-dioxide], the IC50 turned out to be 79 nM in experiment [1] (setting [3]) and 0.083 nM in experiment [2] (setting [4]).
With `C[C@@H]1[C@@H](C)C/C=C/[C@@](O)([C@@H]2CCN(C)C2=O)[C@@H]2CC[C@H]2CN2C[C@@]3(CCCc4cc(Cl)ccc43)COc3ccc(cc32)C(=O)NS1(=O)=O` [Example 100106, (1S,3′R,6′R,7′S,8′E,11′S,12′R)-6-chloro-7′-hydroxy-11′,12′-dimethyl-7′-((3S)-1-methyl-2-oxo-3-pyrrolidinyl)-3,4-dihydro-2H,15′H-spiro[naphthalene-1,22′-[20]oxa[13]thia[1,14]diazatetracyclo [14.7.2.0~3,6~.0~19,24~]pentacosa[8,16,18,24]tetraen]-15′-one 13′,13′-dioxide], the IC50 turned out to be 121 nM in experiment [1] (setting [7]) and 0.143 nM in experiment [2] (setting [6]).
For the molecule `C[C@@H]1[C@@H](C)CCC[C@](C)(CN2CCN3CCOC[C@@H]3C2)[C@@H]2CC[C@H]2CN2C[C@@]3(CCCc4cc(Cl)ccc43)COc3ccc(cc32)C(=O)NS1(=O)=O` [Example 100300, (1S,3′R,6′R,7′S,11′S,12′R)-6-chloro-7′-((9aS)-hexahydropyrazino[2,1-c][1,4]oxazin-8(1H)-ylmethyl)-7′,11′,12′-trimethyl-3,4-dihydro-2H,15′H-spiro[naphthalene-1,22′-[20]oxa[13]thia[1,14]diazatetracyclo [14.7.2.0~3,6~.0~19,24~]pentacosa[16,18,24]trien]-15′-one 13′,13′-dioxide], the 50% inhibitory concentration (IC50) is 235 nM in experiment [1] (setting [5]) and 0.109 nM in experiment [2] (setting [6]).
With `C[C@@H]1[C@@H](C)C/C=C/[C@@]2(CCCO2)[C@@H]2CC[C@H]2CN2C[C@@]3(CCCc4cc(Cl)ccc43)COc3ccc(cc32)C(=O)NS1(=O)=O` (single isomer, unassigned) [Example 100159], the IC50 turned out to be 591 nM in experiment [1] (setting [5]) and 0.559 nM in experiment [2] (setting [6]).
Turning to `CO[C@@]1(CN2CC(CO)(CO)C2)/C=C/C[C@H](C)[C@@H](C)S(=O)(=O)NC(=O)c2ccc3c(c2)N(C[C@@H]2CC[C@H]21)C[C@@]1(CCCc2cc(Cl)ccc21)CO3` [Example 206, (1S,3′R,6′R,7′S,8′E,11′S,12′R)-7′-((3,3-bis(hydroxymethyl)-1-azetidinyl)methyl)-6-chloro-7′-methoxy-11′,12′-dimethyl-3,4-dihydro-2H,15′H-spiro[naphthalene-1,22′-[20]oxa[13]thia[1,14]diazatetracyclo [14.7.2.0~3,6~.0~19,24~]pentacosa[8,16,18,24]tetraen]-15′-one 13′,13′-dioxide], the IC50 in experiment [1] (setting [3]) was found to be 6300 nM; in experiment [2] (setting [4]), 0.223 nM.
Regarding `COCC[C@@H]1[C@@H](C)C/C=C/[C@](C=O)(OC)[C@@H]2CC[C@H]2CN2C[C@@]3(CCCc4cc(Cl)ccc43)COc3ccc(cc32)C(=O)NS1(=O)=O` [Example 100520, (1S,3′R,6′R,7′S,8′E,11′S,12′R)-6-chloro-7′-methoxy-12′-(2-methoxyethyl)-11′-methyl-15′-oxo-3,4-dihydro-2H-spiro[naphthalene-1,22′-[20]oxa[13]thia[1,14]diazatetracyclo [14.7.2.0~3,6~.0~19,24~]pentacosa[8,16,18,24]tetraene]-7′-carbaldehyde 13′,13′-dioxide], the values for the IC50 in experiment [1] (setting [5]) and in experiment [2] (setting [6]) were 1690 nM and 0.549 nM, respectively.
For `CO[C@@]1(C)/C=C/C[C@H](C)[C@@H](CCN2CCOCC2)S(=O)(=O)NC(=O)c2ccc3c(c2)N(C[C@@H]2CC[C@H]21)C[C@@]1(CCCc2cc(Cl)ccc21)CO3` (single isomer, unassigned) [Example 100595], the figures for the half-inhibitory concentration (IC50) in experiment [1] (setting [7]) and in experiment [2] (setting [6]) were 133 nM and 0.157 nM, respectively.
For `CO[C@]1(CN2C[C@H]3CN(C)C[C@H]3C2)/C=C/C[C@H](C)[C@@H](C)S(=O)(=O)NC(=O)c2ccc3c(c2)N(C[C@@H]2CC[C@H]21)C[C@@]1(CCCc2cc(Cl)ccc21)CO3` [Example 82], the IC50 is 520 nM in experiment [1] (setting [3]) and 0.394 nM in experiment [2] (setting [4]).
Regarding `C=CCO[C@]1(CN2CCN3CCOC[C@@H]3C2)/C=C/C[C@H](C)[C@@H](C)S(=O)(=O)NC(=O)c2ccc3c(c2)N(C[C@@H]2CC[C@H]21)C[C@@]1(CCCc2cc(Cl)ccc21)CO3` [Example 46, (1S,3′R,6′R,7′R,8′E,11′S,12′R)-6-chloro-7′-((9aS)-hexahydropyrazino[2,1-c][1,4]oxazin-8(1H)-ylmethyl)-11′,12′-dimethyl-7′-(2-propen-1-yloxy)-3,4-dihydro-2H,15′H-spiro[naphthalene-1,22′-[20]oxa[13]thia[1,14]diazatetracyclo [14.7.2.0~3,6~.0~19,24~]pentacosa[8,16,18,24]tetraen]-15′-one 13′,13′-dioxide], the IC50 in experiment [1] (setting [3]) came out at 167 nM; in experiment [2] (setting [4]) it was 0.107 nM.
